According to patent US9669003B2, “Use of flavone and flavanone derivatives in preparation of sedative and hypnotic drugs” (priority 2012, dated 2017):
Marks after values point to notes of the source that are not given here.

Key:
Assay type in all cases: in vivo
Kunming mice [1] = assay: Influence on hypnosis effect with pentobarbital sodium doses at the threshold (50 mg/kg i.p.); settings: pentobarbital sodium 50 mg/kg i.p. 60 min later, x ± s, n = 10
In short: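 Kunming mice (10/group, half each sex) received compound in 0.5% CMC-Na intragastrically at 25, 50 or 100 mg/kg; 60 min later given 0.3% sodium pentobarbital 50 mg/kg i.p. Sleep latency and duration recorded by loss of righting reflex over 1 min; ANOVA and χ2 for sleep incidence.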

Kunming mice [2] = assay: Influence on hypnosis effect with pentobarbital sodium doses below the threshold (25 mg/kg i.p.); settings: pentobarbital sodium 25 mg/kg i.p. 60 min later, sleep observed in 30 min, n = 10
In short: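 Kunming mice (10 per group, half female) given single oral doses of 25, 50 or 100 mg/kg in 0.5% CMC-Na; 60 min later pentobarbital sodium 25 mg/kg i.p. Sleep (righting reflex lost >1 min) scored within 30 min as percentage asleep, χ2 test.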

Kunming mice [3] = assay: Influence on autonomic activity of normal mice (ZIL-2 mice autonomic activity meter, counts within 10 min); settings: intragastric, x ± s; for Times of activities in 1 h after drug administration/10 min: 1 h after administration; for Times of activities in 2 h after drug administration/10 min: 2 h after administration; for Times of activities in 24 h after drug administration/10 min: 24 h after administration
In short: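 Kunming mice (10 per group, half each sex) were dosed at 25, 50 or 100 mg/kg in 0.5% CMC-Na. Spontaneous activity counts over 10 min were recorded at 1 h, 2 h and 24 h post-dose. Groups were compared by ANOVA with Dunnett's test after Levene's check.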

[4] = 25 mg/kg intragastric single dose
[5] = 50 mg/kg intragastric single dose
[6] = 100 mg/kg intragastric single dose
[7] = test drug 25 mg/kg intragastric single dose
[8] = test drug 50 mg/kg intragastric single dose
[9] = test drug 100 mg/kg intragastric single dose

SMILES	duration of sleep (Kunming mice [1]; [4])	time to sleep (Kunming mice [1]; [4])	duration of sleep (Kunming mice [1]; [5])	time to sleep (Kunming mice [1]; [5])	duration of sleep (Kunming mice [1]; [6])	time to sleep (Kunming mice [1]; [6])	Number of sleeping animals (Kunming mice [2]; [7])	rate of sleeping (%) (Kunming mice [2]; [7])	Number of sleeping animals (Kunming mice [2]; [8])	rate of sleeping (%) (Kunming mice [2]; [8])	Number of sleeping animals (Kunming mice [2]; [9])	rate of sleeping (%) (Kunming mice [2]; [9])	Times of activities in 1 h after drug administration/10 min (Kunming mice [3]; 25 mg/kg, n = 10)	Times of activities in 2 h after drug administration/10 min (Kunming mice [3]; 25 mg/kg, n = 10)	Times of activities in 24 h after drug administration/10 min (Kunming mice [3]; 25 mg/kg, n = 10)	Times of activities in 1 h after drug administration/10 min (Kunming mice [3]; 50 mg/kg, n = 10)	Times of activities in 2 h after drug administration/10 min (Kunming mice [3]; 50 mg/kg, n = 10)	Times of activities in 24 h after drug administration/10 min (Kunming mice [3]; 50 mg/kg, n = 10)	Times of activities in 1 h after drug administration/10 min (Kunming mice [3]; 100 mg/kg, n = 10)	Times of activities in 2 h after drug administration/10 min (Kunming mice [3]; 100 mg/kg, n = 10)	further results
N#Cc1cc(-c2cc(=O)c3c(N)cc(F)cc3o2)ccc1O [Example 37]	30.27 ± 22.71 min	4.99 ± 1.97 min	40.03 ± 20.58 min	3.98 ± 1.46 min	57.51 ± 25.63 min	3.88 ± 1.43 min	3	30%	6	60** %	7	70** %	321.4 ± 62.4 /10 min	288.0 ± 38.9 /10 min	335.3 ± 65.2 /10 min	279.7 ± 46.3 /10 min	259.5 ± 46.5 /10 min	333.8 ± 87.8 /10 min	277.3 ± 45.7 /10 min	222.8 ± 43.2 /10 min	Times of activities in 24 h after drug administration/10 min (Kunming mice [3]; 100 mg/kg, n = 10): 317.8 ± 62.3 /10 min
C=Cc1cc(C(N)=O)cc2oc(-c3ccc(N)c(C4CCSC4)c3)cc(=O)c12 (stereo not drawn) [Example 38]	29.67 ± 21.25 min	4.92 ± 2.48 min	36.68 ± 12.30 min	4.67 ± 1.55 min	52.95 ± 20.05 min	3.98 ± 1.27 min	6	60** %	8	80*** %	9	90*** %	312.9 ± 40.6 /10 min	296.2 ± 34.6 /10 min	268.9 ± 82.8 /10 min	259.2 ± 54.6 /10 min	257.1 ± 57.2 /10 min	279.7 ± 76.5 /10 min	182.7 ± 41.3 /10 min	165.4 ± 56.2 /10 min	Times of activities in 24 h after drug administration/10 min (Kunming mice [3]; 100 mg/kg, n = 10): 324.7 ± 80.9 /10 min
CC=Cc1cc(C(=O)O)c2c(=O)cc(-c3ccc(C#N)c(C(=O)O)c3)oc2c1 [Example 40]	21.71 ± 26.77 min	5.32 ± 2.47 min	27.68 ± 27.86 min	5.13 ± 2.64 min	61.35 ± 45.27 min	4.92 ± 1.26 min	4	40* %	6	60** %	7	70** %	291.4 ± 51.5 /10 min	276.0 ± 48.7 /10 min	311.2 ± 79.9 /10 min	245.7 ± 44.5 /10 min	223.6 ± 43.8 /10 min	288.9 ± 68.9 /10 min	145.7 ± 39.8 /10 min	169.8 ± 40.5 /10 min	Times of activities in 24 h after drug administration/10 min (Kunming mice [3]; 100 mg/kg, n = 10): 301.5 ± 91.8 /10 min
COc1ccc(-c2oc3c(OC)c(OC)c(OC)c(OC)c3c(=O)c2OC)cc1OC [Example 41, 3,5,6,7,8,3′,4′-heptamethoxyl-flavone]	22.16 ± 16.23 min	5.33 ± 2.25 min	28.34 ± 17.13 min	5.12 ± 2.09 min	65.44 ± 37.54 min	3.16 ± 1.23 min	4	40* %	6	60** %	8	80*** %	285.2 ± 44.1 /10 min	266.0 ± 40.6 /10 min	307.2 ± 69.7 /10 min	260.4 ± 37.9 /10 min	245.5 ± 28.1 /10 min	306.2 ± 81.3 /10 min	198.6 ± 58.8 /10 min	171.5 ± 56.7 /10 min	Times of activities in 24 h after drug administration/10 min (Kunming mice [3]; 100 mg/kg, n = 10): 291.5 ± 70.0 /10 min
COc1ccc(C2CC(=O)c3c(O)c(OC)c(OC)c(OC)c3O2)cc1 (stereo not drawn) [Example 42, 5-hydroxyl-6,7,8,4′-tetramethoxyl-flavanone]	58.90 ± 15.38 min	4.42 ± 1.65 min	69.37 ± 20.24 min	3.30 ± 1.32 min	78.53 ± 19.87 min	2.26 ± 1.28 min	5	50** %	8	80*** %	9	90*** %	231.2 ± 47.3 /10 min	233.2 ± 35.1 /10 min	313.5 ± 68.2 /10 min	154.5 ± 43.2 /10 min	145.3 ± 41.3 /10 min	310.3 ± 62.5 /10 min	108.5 ± 48.5 /10 min	104.3 ± 42.5 /10 min	Times of activities in 24 h after drug administration/10 min (Kunming mice [3]; 100 mg/kg, n = 10): 302.6 ± 69.3 /10 min
COc1ccc(C2CC(=O)c3c(O)c(OC)c(OC)c(OC)c3O2)cc1OC (stereo not drawn) [Example 43, 5-hydroxyl-6,7,8,3′,4′-penta methoxyl-flavanone]	32.33 ± 23.16 min	4.88 ± 1.91 min	59.98 ± 18.43 min	4.19 ± 1.74 min	63.07 ± 33.12 min	3.85 ± 1.76 min	5	50** %	7	70** %	8	80*** %	–	–	–	–	–	–	–	–	Times of activities in 1 h after drug administration/10 min (Kunming mice [3]; 25 mg/kg, n = 10, 25 mg/kg): 293.7 ± 41.4 /10 min; Times of activities in 2 h after drug administration/10 min (Kunming mice [3]; 25 mg/kg, n = 10, 25 mg/kg): 306.3 ± 51.6 /10 min; Times of activities in 24 h after drug administration/10 min (Kunming mice [3]; 25 mg/kg, n = 10, 25 mg/kg): 324.7 ± 71.3 /10 min; Times of activities in 1 h after drug administration/10 min (Kunming mice [3]; 50 mg/kg, n = 10, 50 mg/kg): 254.1 ± 42.7 /10 min; Times of activities in 2 h after drug administration/10 min (Kunming mice [3]; 50 mg/kg, n = 10, 50 mg/kg): 252.6 ± 41.6 /10 min; Times of activities in 24 h after drug administration/10 min (Kunming mice [3]; 50 mg/kg, n = 10, 50 mg/kg): 313.7 ± 68.5 /10 min; Times of activities in 1 h after drug administration/10 min (Kunming mice [3]; 100 mg/kg, n = 10, 100 mg/kg): 265.4 ± 49.2 /10 min; Times of activities in 2 h after drug administration/10 min (Kunming mice [3]; 100 mg/kg, n = 10, 100 mg/kg): 258.1 ± 32.7 /10 min; Times of activities in 24 h after drug administration/10 min (Kunming mice [3]; 100 mg/kg, n = 10, 100 mg/kg): 294.1 ± 72.3 /10 min
